The record followed here is US9567371B2, “Short beta-defensin-derived peptides” (Yeda Research and Development Co. Ltd., priority 2009, dated 2017).

Peptide text beside a SMILES is read from it.

For one data set, the system named is pre-B-ALL G2 cells. The data set is described as follows: Cell toxicity assay (propidium iodide exclusion, flow cytometry). The format is cell-based, human. The conditions noted are these: 6 and 24 h, FIG. 1. The protocol:
FIG. 1. […] G2 cells (1×10^6/ml) were cultured in 96-well flat-bottom wells in serum free IMDEM culture medium supplemented with L-glutamine and antibiotics, for 6 and 24 h at 37° C. with the indicated peptides. Untreated cells served as a control. After treatment, cells were stained with propidium iodide (PI) and its exclusion was analyzed by flow cytometry. Data shown are the percentage of Pr (dead) cells. Vertical bars represent standard deviation of duplicate experiments. *P<0.05 compared to untreated control.
Pre-B-ALL G2 cells and freshly isolated primary human CD3^+ T cells (1×10^6/ml) were cultured in 96-well flat-bottom wells in serum free IMDM or RPMI 1640 medium, respectively, both supplemented with L-glutamine and antibiotics, for 6 and 24 hrs at 37° C. (95% humidity, 5% CO2) with 10 μM, 100 μM or 1 mM of the peptides. Untreated cells served as a control. Cell viability was determined by propidium iodide (PI) exclusion by flow cytometry as described (Goichberg, P., et al., 2006).
In order to test cytotoxicity of the peptides, human pre-B-ALL G2 cells and freshly isolated primary human CD3^+ T cells (1×10^6/ml) were cultured in with 10 μM, 100 μM or 1 mM of TL-1, AK-1 and cyclic TL-1, as described in the Material and Methods. All tested peptides were not toxic for G2 cells (FIG. 1) as well as for primary human T cells at 10 μM and 100 μM. Even in the highest concentration, 1 mM, the peptides killed only 8-12% and 14-16% cells treated for 6 and 24 hrs, respectively, indicating a very low cytotoxicity of the peptides.
For orientation: A flow cytometer gives signals particle by particle.

In the next data set the test system is MG-63 cells. The data set is described as follows: SDF-1, bFGF and HGF secretion by stromal cells (ELISA of supernatants). It counts as cell-based, human. The conditions noted are these: 10 μM, compared with untreated cells. Here is the method: (§1) FIGS. 7A-7F. Effect of TL-1, AK-1 and cyclic TL-1 on SDF-1, bFGF and HGF secretion by different stromal cell lines. MS-5, MBA-15 and MG-63 cells were co-cultured with 10 μM TL-1, AK-1 or cyclic TL-1 in the serum free medium for 6 hrs, or without added peptide (UT). Levels of SDF-1 (A-C), bFGF (D) and HGF (E, F) were detected in the collected supernatants by ELISA. Data shown are the mean±SD of 2 separate experiments. *P<0.05 compared to control.
SDF-1 levels in tested samples were determined by ELISA as described (Kalinkovich, A., et al., 2006) where the K15C monoclonal antibodies (mAb, INRA, Paris, France) recognizing the first three amino acids of SDF-1 were utilized as a capture Ab (10 μg/mL) in order to measure levels of intact, non-cleaved SDF-1. Levels of basic FGF (bFGF) and HGF in tested samples were determined by using corresponding capture mAbs and polyclonal biotynilated Abs (R&D Systems) as recommended by the manufacturer. In order to examine SDF-1, bFGF and HGF levels in cell supernatants, MS-5, MBA-15 and MG-63 cells were seeded in 24-well Costar wells and cultivated in RPMI 1640 or αMEM Eagle medium, respectively, with 10% FCS. […]
(§2) In order to examine the capability of the peptides to induce secretion of other proteins, the levels of Hepatocyte growth factor (HGF) and Basic fibroblast growth factor (bFGF) were detected in the same supernatants.
On the technique in general: In an ELISA, binding on a coated surface is turned into a signal by an enzyme label.

The next data set deals with MBA-15 cells. The data set is described as above. Conditions: 10 μM, compared with untreated cells. It counts as cell-based, mouse. Here is the method: as §1
(§3) SDF-1 levels in tested samples were determined by ELISA as described (Kalinkovich, A., et al., 2006) where the K15C monoclonal antibodies (mAb, INRA, Paris, France) recognizing the first three amino acids of SDF-1 were utilized as a capture Ab (10 μg/mL) in order to measure levels of intact, non-cleaved SDF-1. Levels of basic FGF (bFGF) and HGF in tested samples were determined by using corresponding capture mAbs and polyclonal biotynilated Abs (R&D Systems) as recommended by the manufacturer. In order to examine SDF-1, bFGF and HGF levels in cell supernatants, MS-5, MBA-15 and MG-63 cells were seeded in 24-well Costar wells and cultivated in RPMI 1640 or αMEM Eagle medium, respectively, with 10% FCS. When the cells reached confluence, the medium was changed to serum free medium and cells were cultivated for additional 6 hrs in the presence of various concentrations of the peptides. Medium samples were collected and centrifuged 10 min at 6000×g at 4° C. to remove cell debris. Supernatants were collected and kept at −70° C. until tested.
(§4) Because BM stromal cells, such as endosteal bone lining osteoblasts and endothelial cells are the main source of human and murine SDF-1, the capability of the peptides to affect SDF-1 secretion by mouse stromal MS-5 and MBA-15 cells, and human osteoblast MG-63 cells was examined.
as §2

Another data set has as its system MS-5 cells. Described as above. It counts as cell-based, mouse. The conditions noted are these: 10 μM, compared with untreated cells. Here is the method:
as §1, §3, §4, §2

The test system of a further data set is SDF-1. Nature of the data set: SDF-1 plasma levels in injected mice (ELISA). The format is in vivo, mouse. Conditions: 5 mg/kg s.c., compared with mice injected with PBS. Here is the method: as §3

As to `N=C(N)NCCC[C@H](NC(=O)CNC(=O)[C@@H](N)CO)C(=O)N[C@@H](CCCCN)C(=O)N[C@@H](CS)C(=O)N[C@@H](CS)C(=O)N[C@@H](CCCNC(=N)N)C(=O)N[C@@H](CCCCN)C(=O)N[C@@H](CCCCN)C(=O)N[C@@H](CCCCN)C(=O)O` [AK-1, SGRKCCRKKK] (H-SGRKCCRKKK-OH), the “cellular toxicity (percentage of PI+ dead cells)” value with pre-B-ALL G2 cells was “Low cellular toxicity”.

For the molecule `c1cc(CN2CCCNCCNCCCNCC2)ccc1CN1CCCNCCNCCCNCC1` [AMD3100, reference compound], the “levels of SDF-1 in supernatants” value with MG-63 cells, in the data set on MBA-15 cells and with MS-5 cells was “did not affect” each time. Further, the SDF-1 plasma levels entry in the data set with SDF-1 is “significant elevation”.

As to `N=C(N)NCCC[C@H](NC(=O)CNC(=O)[C@@H](N)CCCNC(=N)N)C(=O)N[C@@H](CCCCN)C(=O)N[C@@H](CS)C(=O)N[C@@H](CS)C(=O)N[C@@H](CCCNC(=N)N)C(=O)N[C@@H](CCCNC(=N)N)C(=O)N[C@@H](CCCCN)C(=O)N[C@@H](CCCCN)C(=O)O` [TL-1, RGRKCCRRKK] (H-RGRKCCRRKK-OH), the “cellular toxicity (percentage of PI+ dead cells)” value in the data set with pre-B-ALL G2 cells was “Low cellular toxicity”.
